Converted amounts (≈) assume the structure as drawn. “Also recorded” adds a separate entry of the source. Like-named read-outs stand apart in the source and are kept apart here. Numbered stars: 1 amine (or outer) side, 2 acyl side, 3 side chain; on linkers, the order of the positions; unused ones are H or OH. Bridge positions count the residues as written; N and C are the ends. Square brackets hold non-standard residues; d marks the D form. Peptide text beside a SMILES is read from it. * marks the point of attachment. β2hAla(R) = C[C@H](CN[*:1])C(=O)[*:2]; Decanoyl = CCCCCCCCCC(=O)*; Sar = CNCC(=O)O
How the values were obtained:
[1] = TLC precursor-binding assay with lipid II; design: key to Lipid II (TLC binding): “+” indicates binding confirmed; “-” indicates no binding; “~” indicates potential binding with absence of precursor band; conditions: for Lipid II (TLC binding): peptide 0.5, 1, 2 equiv. (nisin 0.1, 0.5, 1 equiv.) with lipid II in Tris·HCl pH 7.5, 50 mM CaCl2, 1 h, silica TLC; for binding to lipid II in TLC assay (in words): lipid II spot on TLC after incubation, PMA staining in Figure S6
Method: (§1) Lipid II and undecaprenyl phosphate (C55-P) (1 equiv., 30 µL) in Tris•HCl buffer (0.2% Triton X-100, 26 mM MgCl2, and 50 mM CaCl2 at pH 7.5) were incubated with the peptides (0.5, 1, 2 equiv.) or nisin (0.1, 0.5, 1 equiv.) in 30 µL water for 1 h. The reaction was then extracted with ^tBuOH/6 M PyOAc (2/1 v/v, 100 µL) and the organic phase was dried using an Eppendorf vacuum centrifuge 5301 (Fisher Scientific, Loughborough, UK) under reduced pressure. The solid was redissolved in CHCl3/MeOH (1/1 v/v, 30–60 µL) for spotting onto the TLC plates. In addition to the peptide–lipid mixtures, a control of each peptide/nisin with 30 µL buffer, and a control of each lipid with 30 µL HPLC-grade water were also incubated and subjected to the same workup. Silica TLC plates were run in a CHCl3/MeOH/H2O/NH3 (88/48/10/1 v/v) solvent system and stained using iodine vapour, phosphomolybdic acid (PMA), or KMnO4 stain, as well as visualisation at 254 nm and 365 nm.

[2] = test system: B. subtilis 168; format: cell-based
Method: MICs were measured in triplicate by microbroth dilution. An overnight culture of B. subtilis 168 (DSMZ German Collection of Microorganisms and Cell Cultures GmbH) was inoculated at 5 × 10^5 CFU/mL in cation-adjusted Mueller–Hinton broth (MHB II) with or without 15 mM or 100 mM CaCl2. Serial two-fold peptide dilutions (128 - 1 µg/mL for analogues and 16 - 0.25 µg/mL for daptomycin) were incubated in polypropylene U-bottom 96-well plates (200 µL final volume) at 37 °C for 24 h. MIC was the lowest concentration at which no growth was observed. Optical density measurements at 620 nm were performed using a Thermo Scientific Multiskan FC (Thermo Fisher Scientific Inc., Paisley, UK). MIC was determined from the lowest concentration at which no tubidity was observed, using an untreated positive growth control, and a broth-only sterility control as references.

[3] = TLC precursor-binding assay with C55-P; design: key to C55-P (TLC binding): “+” indicates binding confirmed; “-” indicates no binding; “~” indicates potential binding with absence of precursor band; conditions: for C55-P spot on TLC after incubation with peptide (in words): absence of C55-P spot = potential indicator of binding, KMnO4 staining in Figure S5; for C55-P (TLC binding): peptide 0.5, 1, 2 equiv. with C55-P in Tris·HCl pH 7.5, 50 mM CaCl2, 1 h, silica TLC
Method: as §1

Molecule | Lipid II (TLC binding) [1] | MIC − Ca^2+ ([2]; B. subtilis 168, MHB II with 0 mM CaCl2, 5 × 10^5 CFU/mL, 37 °C, 24 h, two-fold dilution series, triplicate) [mg/L] | decrease in activity in the absence of calcium ([2]; B. subtilis 168, MIC without Ca versus with 15 or 100 mM Ca) | C55-P spot on TLC after incubation with peptide (in words) [3] | C55-P (TLC binding) [3] | MIC + Ca^2+ ([2]; 168, 24 h) [mg/L] | MIC − Ca^2+ ([2]; 168, 24 h) [mg/L] | binding to lipid II in TLC assay (in words) [1]
CCCCCCCCCC(=O)N[C@@H](Cc1c[nH]c2ccccc12)C(=O)N[C@H](CC(N)=O)C(=O)N[C@@H](CC(=O)O)C(=O)N[C@@H]1C(=O)NCC(=O)N[C@@H](CCCN)C(=O)N[C@@H](CC(=O)O)C(=O)N[C@H](C)C(=O)N[C@@H](CC(=O)O)C(=O)NCC(=O)N[C@H](CO)C(=O)N[C@@H]([C@H](C)CC(=O)O)C(=O)N[C@@H](CC(=O)c2ccccc2N)C(=O)O[C@@H]1C [Daptomycin, reference compound] | - | 16 (≈ 9.87 µM) | 16- to 32 fold | a lack of binding | - |  |  | 
CCCCCCCCCC(=O)NC[C@@H](C)C(=O)NCC(=O)N[C@H](CCC(=O)O)C(=O)N[C@@H](Cc1ccc(O)cc1)C(=O)N[C@@H]1C(=O)N[C@H]([C@H](C)CC)C(=O)N[C@@H](CC(=O)O)C(=O)N[C@@H](CC(=O)O)C(=O)N2CCC[C@H]2C(=O)NCC(=O)N[C@H](CCC(=O)O)C(=O)N[C@@H](CCC(=O)O)C(=O)N(C)CC(=O)O[C@@H]1C [Peptide C1a] (Decanoyl-[β2hAla(R)]G[dE]YT[dI]DDPG[dE]E[Sar]; ester 5-C) | - |  |  |  | - | 128 | 128 (≈ 84.4 µM) | 
CCCCCCCCCC(=O)NC[C@@H](C)C(=O)NCC(=O)N[C@H](CCC(=O)O)C(=O)N[C@@H](Cc1ccc(O)cc1)C(=O)N[C@@H]1C(=O)N[C@H]([C@H](C)CC)C(=O)N[C@@H](CC(=O)O)C(=O)N[C@@H](CC(=O)O)C(=O)N2CCC[C@H]2C(=O)NCC(=O)N[C@H](CCC(=O)O)C(=O)N[C@@H](CCC(=O)O)C(=O)N(C)CC(=O)O[C@@H]1C [Peptide C1b] (Decanoyl-[β2hAla(R)]G[dE]YT[dI]DDPG[dE]E[Sar]; ester 5-C) | - |  |  | no longer visible | ~ | 128 |  | 
CCCCCCCCCC(=O)NC[C@@H](C)C(=O)NCC(=O)N[C@H](CCC(=O)O)C(=O)N[C@@H](Cc1ccc(O)cc1)C(=O)N[C@@H]1C(=O)N[C@H]([C@H](C)CC)C(=O)N[C@@H](CC(=O)O)C(=O)N[C@@H](CC(=O)O)C(=O)N2CCC[C@H]2C(=O)NCC(=O)N[C@@H](CCC(=O)O)C(=O)N[C@@H](CCC(=O)O)C(=O)N(C)CC(=O)O[C@@H]1C [Peptide C2a] (Decanoyl-[β2hAla(R)]G[dE]YT[dI]DDPGEE[Sar]; ester 5-C) | - |  |  | no longer visible | ~ | 128 | 128 (≈ 84.4 µM) | 
CCCCCCCCCC(=O)NC[C@@H](C)C(=O)NCC(=O)N[C@H](CCC(=O)O)C(=O)N[C@@H](Cc1ccc(O)cc1)C(=O)N[C@@H]1C(=O)N[C@H]([C@H](C)CC)C(=O)N[C@@H](CC(=O)O)C(=O)N[C@@H](CC(=O)O)C(=O)N2CCC[C@H]2C(=O)NCC(=O)N[C@@H](CCC(=O)O)C(=O)N[C@@H](CCC(=O)O)C(=O)N(C)CC(=O)O[C@@H]1C [Peptide C2b] (Decanoyl-[β2hAla(R)]G[dE]YT[dI]DDPGEE[Sar]; ester 5-C) | - |  |  | no longer visible |  |  |  | 
CCCCCCCCCC(=O)NC[C@@H](C)C(=O)NCC(=O)N[C@H](CCC(=O)O)C(=O)N[C@@H](Cc1ccc(O)cc1)C(=O)N[C@@H]1C(=O)N[C@H]([C@H](C)CC)C(=O)N[C@@H](CC(=O)O)C(=O)N[C@@H](CC(=O)O)C(=O)N2CCC[C@H]2C(=O)NCC(=O)N[C@@H](CCC(=O)O)C(=O)N[C@@H](CCC(=O)O)C(=O)N(C)CC(=O)O[C@@H]1C [Peptide C2c] (Decanoyl-[β2hAla(R)]G[dE]YT[dI]DDPGEE[Sar]; ester 5-C) | - |  |  | no longer visible |  |  |  | 
CCCCCCCCCC(=O)NC[C@@H](C)C(=O)NCC(=O)N[C@H](CCC(=O)O)C(=O)N[C@@H](Cc1ccc(O)cc1)C(=O)N[C@@H]1C(=O)N[C@H]([C@H](C)CC)C(=O)N[C@@H](CC(=O)O)C(=O)N[C@@H](CC(=O)O)C(=O)N2CCC[C@H]2C(=O)NCC(=O)N[C@H](CC(=O)O)C(=O)N[C@@H](CC(=O)O)C(=O)N(C)CC(=O)O[C@@H]1C [Peptide C3] (Decanoyl-[β2hAla(R)]G[dE]YT[dI]DDPG[dD]D[Sar]; ester 5-C) | - |  |  | no spots for C55-P; also recorded: no longer visible | ~ | 128 | 128 (≈ 86 µM) | 
CCCCCCCCCC(=O)NC[C@@H](C)C(=O)NCC(=O)N[C@H](CCC(=O)O)C(=O)N[C@@H](Cc1ccc(O)cc1)C(=O)N[C@@H]1C(=O)N[C@H]([C@H](C)CC)C(=O)N[C@@H](CC(=O)O)C(=O)N[C@@H](CC(=O)O)C(=O)N2CCC[C@H]2C(=O)NCC(=O)N[C@@H](CC(=O)O)C(=O)N[C@@H](CC(=O)O)C(=O)N(C)CC(=O)O[C@@H]1C [Peptide C4] (Decanoyl-[β2hAla(R)]G[dE]YT[dI]DDPGDD[Sar]; ester 5-C) | - |  |  |  | - | 128 | 128 (≈ 86 µM) | 
CCCCCCCCCC(=O)NC[C@@H](C)C(=O)NCC(=O)N[C@H](CCC(=O)O)C(=O)N[C@@H](Cc1ccc(O)cc1)C(=O)N[C@@H]1C(=O)N[C@H]([C@H](C)CC)C(=O)N[C@@H](CC(=O)O)C(=O)N[C@@H](CC(=O)O)C(=O)N2CCC[C@H]2C(=O)NCC(=O)N[C@H](CC(=O)O)C(=O)N[C@@H](CCC(=O)O)C(=O)N(C)CC(=O)O[C@@H]1C [Peptide C5] (Decanoyl-[β2hAla(R)]G[dE]YT[dI]DDPG[dD]E[Sar]; ester 5-C) | - |  |  |  | - | 128 | 128 (≈ 85.2 µM) | 
CCCCCCCCCC(=O)NC[C@@H](C)C(=O)NCC(=O)N[C@H](CCC(=O)O)C(=O)N[C@@H](Cc1ccc(O)cc1)C(=O)N[C@@H]1C(=O)N[C@H]([C@H](C)CC)C(=O)N[C@@H](CC(=O)O)C(=O)N[C@@H](CC(=O)O)C(=O)N2CCC[C@H]2C(=O)NCC(=O)N[C@@H](CC(=O)O)C(=O)N[C@@H](CCC(=O)O)C(=O)N(C)CC(=O)O[C@@H]1C [Peptide C6] (Decanoyl-[β2hAla(R)]G[dE]YT[dI]DDPGDE[Sar]; ester 5-C) | - |  |  | no longer visible | ~ | 128 | 128 (≈ 85.2 µM) | 
CCCCCCCCCC(=O)NC[C@@H](C)C(=O)NCC(=O)N[C@H](CCC(=O)O)C(=O)N[C@@H](Cc1ccc(O)cc1)C(=O)N[C@@H]1C(=O)N[C@H]([C@H](C)CC)C(=O)N[C@@H](CC(=O)O)C(=O)N[C@@H](CC(=O)O)C(=O)N2CCC[C@H]2C(=O)NCC(=O)N[C@H](CCC(=O)O)C(=O)N[C@@H](CC(=O)O)C(=O)N(C)CC(=O)O[C@@H]1C [Peptide C7a] (Decanoyl-[β2hAla(R)]G[dE]YT[dI]DDPG[dE]D[Sar]; ester 5-C) | - |  |  |  | - | 128 | 128 (≈ 85.2 µM) | lack of binding
CCCCCCCCCC(=O)NC[C@@H](C)C(=O)NCC(=O)N[C@H](CCC(=O)O)C(=O)N[C@@H](Cc1ccc(O)cc1)C(=O)N[C@@H]1C(=O)N[C@H]([C@H](C)CC)C(=O)N[C@@H](CC(=O)O)C(=O)N[C@@H](CC(=O)O)C(=O)N2CCC[C@H]2C(=O)NCC(=O)N[C@H](CCC(=O)O)C(=O)N[C@@H](CC(=O)O)C(=O)N(C)CC(=O)O[C@@H]1C [Peptide C7b] (Decanoyl-[β2hAla(R)]G[dE]YT[dI]DDPG[dE]D[Sar]; ester 5-C) |  |  |  |  |  | 128 |  | 
Nisin [reference compound] | + |  |  |  |  |  |  | nisin-lipid II binding; also recorded: Positive binding

Reference: article PMC12650660, “Novel Synthetic Strategies Towards Analogues of Cadaside and Malacidin Antibiotic Peptides” (Biomolecules, 2025)
